Laboratory results taken from paper PMC6968694 (Emerging Microbes & Infections, 2020).

Biological target: T1, MtbPurT (Mycobacterium tuberculosis, UniProt P95197)
T1 construct: gene purT
Experiment: biochemical

T1 sequence (P95197 entry or part of it): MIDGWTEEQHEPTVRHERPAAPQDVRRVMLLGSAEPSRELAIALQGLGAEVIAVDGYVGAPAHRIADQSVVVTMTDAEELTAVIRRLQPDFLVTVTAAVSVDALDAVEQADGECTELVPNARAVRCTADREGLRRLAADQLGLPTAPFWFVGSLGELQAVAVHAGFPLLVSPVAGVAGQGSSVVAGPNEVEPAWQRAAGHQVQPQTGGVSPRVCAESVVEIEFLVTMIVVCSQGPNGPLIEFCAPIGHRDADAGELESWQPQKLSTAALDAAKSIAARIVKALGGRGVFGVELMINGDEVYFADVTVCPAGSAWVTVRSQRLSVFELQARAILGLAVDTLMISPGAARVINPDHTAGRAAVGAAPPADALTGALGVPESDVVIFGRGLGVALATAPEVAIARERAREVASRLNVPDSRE

Compound: Nc1ncnc2c1ncn2[C@@H]1O[C@H](CO[P@](=O)(O)O[P@](=O)(O)O[P@@](=O)(O)S)[C@@H](O)[C@H]1O [ATPγS]
- Kd: 207 ± 8.02 µM
